Bounds are passed on as bounds.

Data set [1] is described as follows: Toxic level was evaluated. The format is ADME.
The test system of data set [2] is Measles morbillivirus. Nature of the data set: In vitro antiviral activity was tested against, measles virus. The format is functional. The following applies: read-out: ED50 (the source's name).
For data set [3], the system named is Vaccinia virus. Nature of the data set: In vitro antiviral activity was tested against, vaccinia virus (VV). The format is functional. The conditions noted are these: Orthopoxvirus vaccinia; read-out: ED50 (the source's name).
Data set [4] relates to Human alphaherpesvirus 2. Nature of the data set: In vitro antiviral activity was tested against, herpes simplex type 2 virus (HSV-2). The conditions noted are these: read-out: ED50 (the source's name). The class given is functional.
Data set [5] has as its system Human respirovirus 3. Nature of the data set: In vitro antiviral activity was tested against, parainfluenza type 3 (Para 3) virus. The class given is functional. The following applies: read-out: ED50 (the source's name).
Data set [6] concerns Vaccinia virus. The data set can be described thus: In vitro antiviral activity was tested against vaccinia virus (VV). The class given is functional. The following applies: Orthopoxvirus vaccinia; read-out: ED50 (the source's name).
The subject of data set [7] is Human alphaherpesvirus 2. The data set can be described thus: In vitro antiviral activity was tested against herpes simplex type 2 virus (HSV-2). The format is functional. The conditions noted are these: read-out: ED50 (the source's name).
Data set [8] relates to Human respirovirus 3. Nature of the data set: In vitro antiviral activity was tested against, parainfluenza type 3 (Para 3) virus. The conditions noted are these: read-out: ED50 (the source's name).
The subject of data set [9] is Measles morbillivirus. Nature of the data set: In vitro antiviral activity was tested against measles virus. The format is functional. The following applies: read-out: ED50 (the source's name).
Data set [10] can be described thus: Toxic level was evaluated; b=Too insoluble to test. The format is ADME.
The test system of data set [11] is Vaccinia virus. The data set can be described thus: In vitro antiviral activity was tested against, vaccinia virus (VV); b=Too insoluble to test. The class given is functional, organism-based. The following applies: Orthopoxvirus vaccinia.
For data set [12], the system named is Human alphaherpesvirus 2. The data set can be described thus: In vitro antiviral activity was tested against, herpes simplex type 2 virus (HSV-2); b=Too insoluble to test. The class given is functional, organism-based.
The subject of data set [13] is Measles morbillivirus. Nature of the data set: In vitro antiviral activity was tested against, measles virus; b=Too insoluble to test. The class given is functional, organism-based.
Data set [14] concerns Human respirovirus 3. The data set can be described thus: In vitro antiviral activity was tested against, parainfluenza type 3 (Para 3) virus; b=Too insoluble to test. The class given is functional, organism-based.
For data set [15], the system named is P388. The data set can be described thus: In vitro inhibitory effect was tested for cytostatic activity on the growth of lymphoid neoplasm P388 leukemic cell lines. The conditions noted are these: Mus musculus, read-out: ID50 (the source's name). The format is functional.
Data set [16] relates to L1210. The data set can be described thus: In vitro inhibitory effect was tested for cytostatic activity on the growth of murine leukemic L1210 cell lines. The class given is functional. The following applies: Mus musculus, read-out: ID50 (the source's name).
The nature of data set [17]: Toxic level was evaluated; None. The format is ADME.

The compound `CSc1nc(N)c2cc(C)n([C@H]3C[C@H](O)[C@@H](CO)O3)c2n1` had a Toxic level in data set [1] of 1.6 mM. The EC50 in [2] is 250 µM; in [3] it was 1000 µM; in [4], 1300 µM; in [5] it was greater than 5000 µM.

In data set [1], `Cc1cc2cncnc2n1[C@H]1C[C@H](O)[C@@H](CO)O1` displayed a Toxic level of 5 mM. For the same compound, the EC50 came out at 1000 µM in data set [6], 74 µM in data set [7], 1100 µM in data set [8] and 300 µM in data set [9].

`CSc1nc(Cl)c2cc(C)n([C@H]3C[C@H](O)[C@@H](CO)O3)c2n1`: in [10], the Toxic level entry is listed as “Too insoluble”. Also, the ED50 entry in data set [11], in [12], in data set [13] and in data set [14] was “Too insoluble” in each case.

The compound `Cc1nc(N)c2ccn([C@H]3C[C@H](O)[C@@H](CO)O3)c2n1` had a Toxic level in data set [1] of 1.6 mM. For the same compound, the EC50 in [2] is 920 µM; in data set [3], 3100 µM; in data set [4], 1600 µM; in data set [5] it was greater than 5000 µM.

As to `CSc1nc(N)c2cc(Cl)n([C@H]3C[C@H](O)[C@@H](CO)O3)c2n1`, the Toxic level in [1] is 0.5 mM. Besides, the EC50 was 100 µM in data set [2], greater than 500 µM in [3], 580 µM in [4] and 340 µM in [5].

Take `OC[C@H]1O[C@@H](n2ccc3c(Cl)ncnc32)C[C@@H]1O`: the Toxic level in data set [1] was found to be 1.6 mM. The IC50 in [15] came to 73 µM; in data set [16] it was 59 µM. The EC50 in data set [2] is 89 µM; in [3], greater than 5000 µM; in data set [4] it was 650 µM; in data set [5] it was 960 µM.

As to `Cc1cc2c(N)ncnc2n1[C@H]1C[C@H](O)[C@@H](CO)O1`, in data set [1], the Toxic level stood at 5 mM. Besides, the EC50 is 500 µM in [2], 1000 µM in data set [3], 2100 µM in data set [4] and 500 µM in data set [5].

The compound `OC[C@H]1O[C@@H](n2ccc3cncnc32)C[C@@H]1O` came in with a Toxic level in data set [1] of 5 mM. The EC50 in [2] was 250 µM; in data set [3], greater than 5000 µM; in data set [4] it was 1400 µM; in data set [5], greater than 5000 µM.

The compound `Nc1ncnc2c1ccn2[C@H]1C[C@H](O)[C@@H](CO)O1` [2'-Deoxytubercidin] had a Toxic level in data set [1] of 1.6 mM. In addition, the IC50 amounted to 49 µM in [15] and 80 µM in data set [16]. Also, the EC50 in data set [2] came to 210 µM; in [3] it was 160 µM; in data set [4], 50 µM; in data set [5], 660 µM.

In the case of `NC(=O)c1ncn([C@@H]2O[C@H](CO)[C@@H](O)[C@H]2O)n1` [RIBAVIRIN], the EC50 stood at 30 µM in data set [2], 85 µM in data set [3], 190 µM in data set [4] and 160 µM in [5]. The Toxic level result in [17] is “Non-toxic”.

`OC[C@H]1O[C@@H](n2ccc3c(S)ncnc32)C[C@@H]1O`: in data set [1], the Toxic level was found to be 5 mM. For the same compound, the EC50 in [2] was 27 µM; in data set [3], 1100 µM; in data set [4], 160 µM; in [5] it was greater than 5000 µM.

`Nc1nc(Cl)nc2c1ncn2[C@H]1C[C@H](O)[C@@H](CO)O1` [CLADRIBINE] showed a Toxic level in data set [1] of 0.005 mM. The IC50 in [15] turned out to be 0.032 µM; in [16], 0.026 µM. In addition, the EC50 in [2] was greater than 500 µM; in data set [3], 5 µM; in data set [4], 5 µM; in data set [5], greater than 500 µM.

For `Nc1ncnc2c1cc(Cl)n2[C@H]1C[C@H](O)[C@@H](CO)O1`, the Toxic level in data set [1] was found to be 1.6 mM. Moreover, the EC50 in data set [2] came out at 360 µM; in [3], 330 µM; in [4] it was 1100 µM; in data set [5], 1600 µM.

As for `CSc1ncc2cc(C)n([C@H]3C[C@H](O)[C@@H](CO)O3)c2n1`, the Toxic level in data set [1] was greater than 5 mM. In addition, the EC50 is 95 µM in data set [2], 840 µM in data set [3], 2900 µM in data set [4] and 1100 µM in data set [5].

In turn, `Nc1nc(Cl)nc2c1ccn2[C@H]1C[C@H](O)[C@@H](CO)O1` displayed a Toxic level in data set [1] of 0.5 mM. The EC50 in [2] was greater than 5000 µM; in data set [3], 1100 µM; in [4] it was greater than 5000 µM; in data set [5] it was greater than 5000 µM.

Take `Cc1nc(N)c2cc(Cl)n([C@H]3C[C@H](O)[C@@H](CO)O3)c2n1`: the Toxic level in data set [1] is 0.5 mM. The EC50 was 360 µM in data set [2], 840 µM in data set [3], 500 µM in data set [4] and greater than 1600 µM in data set [5].

For the origin of these results see ChEMBL document CHEMBL1122818, “Synthesis and biological activity of certain 6-substituted and 2,6-disubstituted 2'-deoxytubercidins prepared via the stereospecific sodium salt glycosylation procedure” (J Med Chem, 1985).
